According to patent publication US20240124460A1, “METHODS AND COMPOSITIONS FOR TARGETED PROTEIN DEGRADATION” (Ranok Therapeutics (Hangzhou) Co. Ltd., priority 2020, published 2024):
Like-named read-outs stand apart in the source and are kept apart here.

What was measured:
HSP90α protein [1] = molecular target: T1, HSP90α protein (Homo sapiens, UniProt P07900); assay: HSP90α-binding FP (BODIPY) assay; details: FP competition with BODIPY-labeled RNK04010
T1 construct: purchased BPS Bioscience #50298
Outline: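 Fluorescence polarization measured competition with N-terminal human HSP90α, using either FITC-geldanamycin or BODIPY-labelled triazolone RNK04010 as tracer (5 nM final each). Compounds were tested in 2.5-fold dilutions from 20 μM to 5.2 nM, with incubation at 25 °C for 120 min (FITC) or 300 min (BODIPY).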

ERBB2 = ERBB2 (HER2) flow cytometry protein degradation assay in BT-474 cells; type: cell-based, human; details: DC50, BT-474 cells, 24 hr
Outline: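 BT-474 cells trypsinised after compound treatment and stained with PE-conjugated anti-ERBB2 antibody, 30 min at 25° C in the dark, then fixed in 1% paraformaldehyde for flow cytometry. % inhibition = 100−(D−B)/(S−B)*100, using treated, untreated-stained and unstained cell fluorescence.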

[2] = system: MV-4-11 human acute myeloid leukemia; assay: MV-4-11 CCK-8 proliferation assay; type: cell-based; details: MV-4-11 cells, 72 hr
Outline: (§1)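 3-fold dilution series, 20 μM–1.02 nM; ATCC culture conditions; CCK-8 absorbance read-out; % inhibition = 100 − (D−B)/(S−B)×100, S = DMSO cells, B = medium + DMSO, no cells.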

[3] = system: U-87 MG human glioblastoma; assay: U87 MG CCK-8 proliferation assay; type: cell-based; details: U-87 MG cells, read-out: U87MG CCK-8
Outline: as §1

MAPK7 [4] = molecular target: T2, MAPK7 (Homo sapiens, UniProt Q13164); assay: MAPK7 kinase assay (ADP-Glo); type: biochemical; set-up: purchased Carna Biosciences #04-146; details: ATP 340 μM
T2 sequence (Q13164 whole entry): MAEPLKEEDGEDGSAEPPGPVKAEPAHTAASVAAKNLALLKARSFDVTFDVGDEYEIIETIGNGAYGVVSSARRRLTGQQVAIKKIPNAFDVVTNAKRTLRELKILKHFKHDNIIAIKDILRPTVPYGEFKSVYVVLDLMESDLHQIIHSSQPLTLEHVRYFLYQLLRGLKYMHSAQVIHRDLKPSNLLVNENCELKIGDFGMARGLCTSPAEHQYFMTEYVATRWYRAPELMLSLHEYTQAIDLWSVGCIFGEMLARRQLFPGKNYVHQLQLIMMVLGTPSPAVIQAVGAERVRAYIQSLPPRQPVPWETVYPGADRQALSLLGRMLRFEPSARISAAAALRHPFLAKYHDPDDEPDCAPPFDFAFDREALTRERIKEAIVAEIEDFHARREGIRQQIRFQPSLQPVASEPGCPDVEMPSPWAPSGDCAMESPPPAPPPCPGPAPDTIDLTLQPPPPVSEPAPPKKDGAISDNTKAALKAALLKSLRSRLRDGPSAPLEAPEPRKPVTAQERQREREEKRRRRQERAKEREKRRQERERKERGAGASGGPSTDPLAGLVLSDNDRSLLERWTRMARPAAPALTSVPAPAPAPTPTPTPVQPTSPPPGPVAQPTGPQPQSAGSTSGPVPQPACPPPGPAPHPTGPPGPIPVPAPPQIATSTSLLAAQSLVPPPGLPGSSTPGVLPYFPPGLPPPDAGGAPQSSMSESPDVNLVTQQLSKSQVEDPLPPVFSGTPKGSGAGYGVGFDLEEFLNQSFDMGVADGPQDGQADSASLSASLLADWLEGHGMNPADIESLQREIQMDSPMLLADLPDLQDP
Experimental: The inhibition of MAPK7 kinase activity by test compounds was measured by the ADP-Glo Kinase Assay (Promega, #V6930), following the manufacturer's instructions, except as noted. 3-fold serial dilutions of each test compound were prepared ranging from 50 μM to 2.54 nM. Also, as a positive control, a 4-fold serial dilution of the MAPK7 inhibitor, XMD17-109 (MedChemExpress, #HY-15665) was prepared ranging from 10 μM to 0.04 nM. In brief, in 384-well plates, test compounds were added to the kinase reaction mix containing recombinant MAPK7 protein (Carna Biosciences, #04-146; 20 nM final concentration), myelin basic protein (SignalChem Biotech, #M42-54G; 0.1 mg/ml final concentration) and ATP (340 μM final concentration), then mixed by shaking and incubated with ADP-Glo Reagent and Kinase Detection Reagent. Luminescence was measured on a BioTek plate reader.
Lumpositive: The average ratio for 10 wells of positive controls (10 μM XMD17-109) across the plate.
Lumvehicle: The average ratio for 10 wells of negative controls (0.5% DMSO) across the plate.

MAPK7 [5] = molecular target: T2, MAPK7; assay: MAPK7 Western blot protein degradation assay in U-87 MG cells; type: cell-based; set-up: U-87 MG human glioblastoma cells, which express MAPK7; endogenous in cells; host or cells: U-87 MG; details: 48 hr
Outline: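 U-87 MG glioblastoma cells treated with compounds at various concentrations for 48 h at 37 °C. MAPK7 (ERK5) levels in protein-normalized lysates measured by Western blot with β-actin as loading reference, quantified by fluorescence imaging.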

[6] = system: MDA-MB-231 human breast adenocarcinoma; assay: MDA-MB-231 CCK-8 proliferation assay; type: cell-based; details: MDA-MB-231 cells, 72 hr
Experimental: (§2) The following cancer cell lines were employed: A549 human lung carcinoma (ATCC, #CCL-185); BT-474 human breast carcinoma (ATCC, #HTB-20); MDA-MB-231 human breast adenocarcinoma (ATCC, #CRM−HTB-26); MDA-MB-468 human breast adenocarcinoma (ATCC, #HTB-132); MV-4-11 human acute myeloid leukemia (ATCC, #CRL-9591); and U-87 MG human glioblastoma (ATCC, #HTB-14). Cell lines were cultured essentially according to ATCC recommendations.
(§3) 3-fold serial dilutions of each test compound were prepared ranging from 20 μM to 1.02 nM.
(§4) % Inhibition=100−(D−B)/(S−B)*100%. • S: Absorbance of cells treated with DMSO • D: Absorbance of compound-treated cells • B: Absorbance of medium with DMSO without cells

[7] = system: MDA-MB-468 human breast adenocarcinoma; assay: MDA-MB-468 CCK-8 proliferation assay; type: cell-based; details: MDA-MB-468 cells, 72 hr
Experimental: as §2, §3, §4

HSP90α protein [8] = molecular target: T1, HSP90α protein; assay: HSP90α-binding FP (FITC) assay; details: FP competition with FITC-geldanamycin
Experimental: Binding of test compounds to HSP90α protein was measured by fluorescent polarization (FP) using the HSP90α (N-terminal) Assay Kit (BPS Bioscience, #50298), following the manufacturer's instructions, except as noted. Fluorescently labeled HSP90-binding compounds, either the provided FITC-geldanamycin (5 nM final concentration) or RNK04010, a triazolone-based HSP90 binding small molecule labeled with BODIPY through a piperazine-phenyl linker (5 nM final concentration) were employed. A 2.5-fold serial dilution of each test compound ranging from 20 μM to 5.2 nM was assayed for binding to HSP90α. After the final step of adding HSP90α protein to each assay well, plates were mixed by brief shaking, incubated at 25° C. for 120 min for FITC-geldanamycin or 300 min for RNK04010, and fluorescence was measured using a PerkinElmer EnVision Plate Reader.

SMILES	IC50 (HSP90α protein [1])	ERBB2 degradation (ERBB2)	EC50 ([2]; Homo sapiens, MV4-11)	EC50 ([3]; Homo sapiens, U-87 MG, 72 h)	IC50 (MAPK7 [4])	MAPK7 degradation (30 nM) (MAPK7 [5])	MAPK7 degradation (100 nM) (MAPK7 [5])	MAPK7 degradation (1000 nM) (MAPK7 [5])	MAPK7 degradation (300 nM) (MAPK7 [5]; 300 nM)	EC50 [6]	EC50 [7]	EC50 [2]	EC50 ([3]; 72 hr)	IC50 (HSP90α protein [8])
CCOc1cc(N2CCC(C(=O)N3CCN(Cc4ccc(-n5c(O)nnc5-c5cc(C(C)C)c(O)cc5O)cc4)CC3)CC2)ccc1Nc1ncc2c(n1)N(C)c1ccccc1C(=O)N2C [Compound 024, 2-((4-(4-(4-(4-(3-(2,4-dihydroxy-5-isopropylphenyl)-5-hydroxy-4H-1,2,4-triazol-4-yl)benzyl)piperazine-1-carbonyl)piperidin-1-yl)-2-ethoxyphenyl)amino)-5,11-dimethyl-5,11-dihydro-6H-benzo[e]pyrimido[5,4-b][1,4]diazepin-6-one]	100 to 1000 nM	B (DC50 = 100-1000 nM)	< 100 nM	< 100 nM	> 1000 nM	C (< 33% degradation)	B (33-66% degradation)	A (>66% degradation)						
CCOc1cc(N2CCC(C(=O)N3CCC(CN4CCN(Cc5ccc(-n6c(O)nnc6-c6cc(C(C)C)c(O)cc6O)cc5)CC4)CC3)CC2)ccc1Nc1ncc2c(n1)N(C)c1ccccc1C(=O)N2C.Cl [Compound 032, 2-((4-(4-(4-((4-(4-(3-(2,4-dihydroxy-5-isopropylphenyl)-5-hydroxy-4H-1,2,4-triazol-4-yl)benzyl)piperazin-1-yl)methyl)piperidine-1-carbonyl)piperidin-1-yl)-2-ethoxyphenyl)amino)-5,11-dimethyl-5,11-dihydro-6H-benzo[e]pyrimido[5,4-b][1,4]diazepin-6-one]	< 100 nM	B (DC50 = 100-1000 nM)	< 100 nM	100 to 1000 nM	> 1000 nM	C (< 33% degradation)	B (33-66% degradation)	A (>66% degradation)	A (>66% degradation)					
CCOc1cc(N2CCC(C(=O)N3CCN(Cc4ccc(-n5c(O)nnc5-c5cc(CC)c(O)cc5O)cc4)CC3)CC2)ccc1Nc1ncc2c(n1)N(C)c1ccccc1C(=O)N2C [Compound 049, 2-((2-ethoxy-4-(4-(4-(4-(3-(5-ethyl-2,4-dihydroxyphenyl)-5-hydroxy-4H-1,2,4-triazol-4-yl)benzyl)piperazine-1-carbonyl)piperidin-1-yl)phenyl)amino)-5,11-dimethyl-5,11-dihydro-6H-benzo[e]pyrimido[5,4-b][1,4]diazepin-6-one]	100 to 1000 nM		< 100 nM	100 to 1000 nM						< 100 nM	< 100 nM			
CCOc1cc(N2CCC(C(=O)NCCOCc3ccc(-n4c(O)nnc4-c4cc(C(C)C)c(O)cc4O)cc3)CC2)ccc1Nc1ncc2c(n1)N(C)c1ccccc1C(=O)N2C [Compound 053, N-(2-((4-(3-(2,4-dihydroxy-5-isopropylphenyl)-5-hydroxy-4H-1,2,4-triazol-4-yl)benzyl)oxy)ethyl)-1-(4-((5,11-dimethyl-6-oxo-6,11-dihydro-5H-benzo[e]pyrimido[5,4-b][1,4]diazepin-2-yl)amino)-3-ethoxyphenyl)piperidine-4-carboxamide]	100 to 1000 nM									100 to 1000 nM	< 100 nM	< 100 nM	100 to 1000 nM	
CCOc1cc(N2CCC(C(=O)NCCOCCNC(=O)O[C@H]3CC[C@H](Nc4cc(-n5nc(C(F)(F)F)c6c5CC(C)(C)CC6=O)ccc4C(N)=O)CC3)CC2)ccc1Nc1ncc2c(n1)N(C)c1ccccc1C(=O)N2C [Compound 103, (1R,4R)-4-((2-carbamoyl-5-(6,6-dimethyl-4-oxo-3-(trifluoromethyl)-4,5,6,7-tetrahydro-1H-indazol-1-yl)phenyl)amino)cyclohexyl (2-(2-(1-(4-((5,11-dimethyl-6-oxo-6,11-dihydro-5H-benzo[e]pyrimido[5,4-b][1,4]diazepin-2-yl)amino)-3-ethoxyphenyl)piperidine-4-carboxamido)ethoxy)ethyl)carbamate]	> 1000 nM	C (DC50 > 1000 nM)	100 to 1000 nM	> 1000 nM	> 1000 nM									
CCOc1cc(N2CCC(C(=O)NCCOCCNC(=O)O[C@H]3CC[C@H](Nc4cc(-n5nc(C(F)(F)F)c6c5CC(C)(C)CC6=O)ccc4C(N)=O)CC3)CC2)ccc1Nc1ncc2c(n1)N(S(C)(=O)=O)c1ccccc1C(=O)N2C [Compound 105, (1R,4R)-4-((2-carbamoyl-5-(6,6-dimethyl-4-oxo-3-(trifluoromethyl)-4,5,6,7-tetrahydro-1H-indazol-1-yl)phenyl)amino)cyclohexyl (2-(2-(1-(3-ethoxy-4-((5-methyl-11-(methylsulfonyl)-6-oxo-6,11-dihydro-5H-benzo[e]pyrimido[5,4-b][1,4]diazepin-2-yl)amino)phenyl)piperidine-4-carboxamido)ethoxy)ethyl)carbamate]	> 1000 nM	C (DC50 > 1000 nM)	100 to 1000 nM	> 1000 nM	> 1000 nM									
CCOc1cc(N2CCC(C(=O)N3CCC(CN4CCN(Cc5ccc(-n6c(C(=O)NC(C)C(F)(F)F)nnc6-c6cc(CC)c(O)cc6O)cc5)CC4)CC3)CC2)ccc1N(CC)c1ncc2c(n1)N(S(C)(=O)=O)c1ccccc1C(=O)N2C (stereo not shown) [Compound 115, 4-(4-((4-((1-(1-(3-ethoxy-4-(ethyl(5-methyl-11-(methylsulfonyl)-6-oxo-6,11-dihydro-5H-benzo[e]pyrimido[5,4-b][1,4]diazepin-2-yl)amino)phenyl)piperidine-4-carbonyl)piperidin-4-yl)methyl)piperazin-1-yl)methyl)phenyl)-5-(5-ethyl-2,4-dihydroxyphenyl)-N-(1,1,1-trifluoropropan-2-yl)-4H-1,2,4-triazole-3-carboxamide]	100 to 1000 nM	B (DC50 = 100-1000 nM)	< 100 nM	100 to 1000 nM	> 1000 nM									
CCOc1cc(N2CCC(C(=O)N3CCC(CN4CCN(Cc5ccc(-n6c(O)nnc6-c6cc(C(C)C)c(O)cc6OC)cc5)CC4)CC3)CC2)ccc1Nc1ncc2c(n1)N(S(C)(=O)=O)c1ccccc1C(=O)N2C [Compound 128, 2-((2-ethoxy-4-(4-(4-((4-(4-(3-hydroxy-5-(4-hydroxy-5-isopropyl-2-methoxyphenyl)-4H-1,2,4-triazol-4-yl)benzyl)piperazin-1-yl)methyl)piperidine-1-carbonyl)piperidin-1-yl)phenyl)amino)-5-methyl-11-(methylsulfonyl)-5,11-dihydro-6H-benzo[e]pyrimido[5,4-b][1,4]diazepin-6-one]			> 1000 nM	> 1000 nM	< 100 nM									> 1000 nM
